This is an account of results in BindingDB's records for doi:10.3109/14756366.2011.590804 (University of Karachi, 2012).

The test concerns the target Beta-glucuronidase (Escherichia coli (strain K12), UniProt P05804). In words: β-Glucuronidase Inhibition Assay. As to conditions: pH 7; 37 °C. Here is the method: β-Glucuronidase inhibitory activity was evaluated by a biochemical assay, based on the measurement of the absorbance of p-nitrophenol at 405 nm, produced from the enzymatic hydrolysis of chromogenic substrate [Choudhary et al., Steroids, 74:1040-1044; Khan et al., Chem. Pharm. Bull., 50:1443-1446]. The reaction mixture, consisting of 5 μL of test compound solution, 185 μL of 0.1 M acetate buffer (pH 7.0) and 10 μL β-glucuronidase solution, was kept for 30 min at 37°C. The total reaction volume being 250 μL. 50 μL of p-nitrophenyl-β-D-glucuronide was added to each plate. A multiplate reader was used to read the absorbance at 405 nm.

Beta-glucuronidase, sequence (P05804 whole entry): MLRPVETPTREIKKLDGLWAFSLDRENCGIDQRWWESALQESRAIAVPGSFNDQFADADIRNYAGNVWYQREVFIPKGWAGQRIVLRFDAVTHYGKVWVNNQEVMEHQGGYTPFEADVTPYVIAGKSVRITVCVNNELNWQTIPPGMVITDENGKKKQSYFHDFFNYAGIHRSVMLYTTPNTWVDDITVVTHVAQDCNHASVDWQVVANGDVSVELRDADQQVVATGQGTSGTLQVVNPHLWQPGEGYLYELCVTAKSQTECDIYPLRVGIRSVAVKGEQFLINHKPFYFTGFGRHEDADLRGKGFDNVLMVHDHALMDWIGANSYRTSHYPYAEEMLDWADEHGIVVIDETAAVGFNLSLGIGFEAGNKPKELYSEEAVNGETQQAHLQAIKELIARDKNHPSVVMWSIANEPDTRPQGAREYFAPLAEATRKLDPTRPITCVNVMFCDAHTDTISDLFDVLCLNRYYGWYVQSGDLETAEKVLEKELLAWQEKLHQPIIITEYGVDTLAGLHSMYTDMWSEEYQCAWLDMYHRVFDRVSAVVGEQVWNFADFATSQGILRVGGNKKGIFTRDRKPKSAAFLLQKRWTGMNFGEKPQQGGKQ

By IC50 is commonly meant the point on the concentration scale where inhibition reaches its midpoint. As to `C[C@]12CCC(=O)C=C1CC[C@@H]1[C@@H]2CC[C@]2(C)C(=O)CC[C@@H]12` [Androst-4-en-3,17-dione, 2], 430 µM corresponded to half-maximal inhibition (IC50).
In the case of `C[C@]12CCC(=O)CC1CC[C@@H]1[C@@H]2CC[C@]2(C)C(=O)CC[C@@H]12` (some centres undefined) [Androstane-3,17-dione (2)] it was 374 µM; in that of `C[C@]12CC[C@H](O)C=C1C(=O)C[C@@H]1[C@@H]2CC[C@]2(C)C(=O)CC[C@@H]12` [Androst-4-ene-3β-ol-6,17-dione (7)], 222 µM; in that of `C[C@]12CC[C@H]3[C@@H]([C@@H](O)CC4=C[C@@H](O)CC[C@@]43C)[C@@H]1CC[C@@H]2O` [Androst-4-ene-3β,7β,17β-triol (8)], 191 µM.
